{"source": "patent US20230248715A1", "about": "“METHOD OF TREATING ACUTE MIGRAINE WITH CGRP-ACTIVE COMPOUND” (Merck Sharp & Dohme Corp., priority 2016, published 2023)", "key": {"acute migraine": {"tested_on": "acute migraine", "test": "Phase IIb randomized, double-blind, placebo-controlled trial of ubrogepant (MK-1602-006; NCT01613248): efficacy", "format": "in vivo, human", "method": "A Phase IIb, multicenter, randomized, double-blind, placebo-controlled trial was conducted (Merck Protocol MK-1602-006;published online at ClinicalTrials.gov as NCT01613248) to investigate the efficacy and safety of ubrogepant across a range of doses. The study was conducted in accordance with principles of Good Clinical Practice, and was approved by Schulman Associates Institutional Review Board Inc. Each participant provided written informed consent. This study complied with the International Headache Society's guidelines for controlled trials of drugs in migraine, including the use of two-hour pain freedom as an endpoint. The sample size was large, populations were well balanced, and demographics were reflective of the broader migraine populations, contributing to the generalizability of the trial. Participants were allocated in a double-blind fashion using a computer-generated randomized allocation schedule prepared by a blinded statistician. Randomization was stratified based on the participant's self-reported usual triptan response: oral triptan high-responder (current users of triptans who respond […]); oral triptan low-responder (current users of triptans who respond <75% of the time or those who have tried triptans but no longer use them); oral triptan naive. Numbered containers were used to implement allocation. Personnel at each study site used a central interactive voice response system to determine which container should be given to which participant. All study personnel, including investigators, site staff, participants, and sponsor staff remained blinded to treatment allocation throughout the study. Unblinding took place after data collection was complete. After being randomized, participants had up to two months to treat a qualifying migraine (as defined herein). Once the targeted number of treated participants with evaluable data was reached, study enrollment was stopped, as specified in the protocol at the sponsor's discretion. Participants who were enrolled but had not treated a migraine were asked to return their study medication and were discontinued from the study With reference to FIG. 1, eligible participants were allocated in a 1:1 ratio to one of the following treatment groups: 1, 10, 25, 50, and 100 mg of ubrogepant, or placebo. Study medication was provided to participants in a single bottle, with a single dose per bottle. Participants were instructed to take the dose when they experienced a qualifying migraine defined by the following conditions: migraine headache was moderate or severe (grade 2 or 3 on pain scale); migraine headache started less than four hours earlier; the migraine headache was a new headache that had not been previously treated and was not a recurrence of a previous migraine head ache (at least 48 hours had elapsed since the complete termination of their last attack (pain and all associated symptoms); no other migraine headache or headache had occurred in the previous 48 hours; the migraine headache was not already resolving on its own; and no prohibited medication had been taken. The onset of migraine and the results from administering the study medication were self-reported by participants using a paper diary. Headache severity was measured on the following pain scale: 0 none; 1 mild; 2 moderate; 3 severe. Participants assessed headache at baseline and then every 30 minutes up to two hours, then hourly up to four hours and at 6,8,24, and 48 hours. The primary efficacy endpoints were pain freedom at two hours post-dose (reduction in headache severity from grade 2 or 3 at baseline to grade 0) and headache response at two hours post-dose (reduction in headache severity from grade 2 or 3 at baseline to grade 1 or 0). […]"}, "[1]": {"test": "Phase IIb randomized, double-blind, placebo-controlled trial of ubrogepant (MK-1602-006; NCT01613248): safety endpoints", "format": "in vivo, human", "method": "A Phase IIb, multicenter, randomized, double-blind, placebo-controlled trial was conducted (Merck Protocol MK-1602-006;published online at ClinicalTrials.gov as NCT01613248) to investigate the efficacy and safety of ubrogepant across a range of doses. The study was conducted in accordance with principles of Good Clinical Practice, and was approved by Schulman Associates Institutional Review Board Inc. Each participant provided written informed consent. This study complied with the International Headache Society's guidelines for controlled trials of drugs in migraine, including the use of two-hour pain freedom as an endpoint. The sample size was large, populations were well balanced, and demographics were reflective of the broader migraine populations, contributing to the generalizability of the trial.\nWith reference to FIG. 1, eligible participants were allocated in a 1:1 ratio to one of the following treatment groups: 1, 10, 25, 50, and 100 mg of ubrogepant, or placebo. Study medication was provided to participants in a single bottle, with a single dose per bottle. Participants were instructed to take the dose when they experienced a qualifying migraine defined by the following conditions: migraine headache was moderate or severe (grade 2 or 3 on pain scale); migraine headache started less than four hours earlier; the migraine headache was a new headache that had not been previously treated and was not a recurrence of a previous migraine head ache (at least 48 hours had elapsed since the complete termination of their last attack (pain and all associated symptoms); no other migraine headache or headache had occurred in the previous 48 hours; the migraine headache was not already resolving on its own; and no prohibited medication had been taken.\nParticipants were also monitored for safety endpoints, including standard safety assessment (medical history and physical examination; vital signs; electrocardiogram; laboratory tests including hematology, blood chemistry, and urinalysis; and female participants of childbearing potential were administered pregnancy tests) and adverse events, including any post-screening elevation in participants of aspartate amino-transferase (AST) and/or ALT, defined as: >3×upper-limit-of-normal (>3×ULN).\nFor the analysis of efficacy data, the Full-Analysis-Set population served as the primary population. […] The All-Subjects-as-Treated (ASaT) population was used for safety analyses."}}, "data": [{"smiles": "C[C@@H]1[C@H](c2ccccc2)C[C@H](NC(=O)c2cnc3c(c2)C[C@@]2(C3)C(=O)Nc3ncccc32)C(=O)N1CC(F)(F)F", "note": "[ubrogepant]", "values": [{"measurement": "two-hour pain-free rate vs placebo", "setting": "acute migraine; 25 mg, oral, two hours post-dose, nominal p value", "value": "nominally significantly higher two-hour pain-free rate than placebo"}, {"measurement": "sustained pain freedom 2-24 hours vs placebo", "setting": "acute migraine; 25 mg, oral, nominal p value", "value": "Nominally significant differences from placebo"}, {"measurement": "sustained pain relief 2-48 hours vs placebo", "setting": "acute migraine; 25 mg, oral, nominal p value", "value": "Nominally significant differences from placebo"}, {"measurement": "total migraine freedom at two hours vs placebo", "setting": "acute migraine; 25 mg, oral, nominal p value", "value": "Nominally significant differences from placebo"}, {"measurement": "two-hour pain-free rate vs placebo", "setting": "acute migraine; 50 mg, oral, two hours post-dose, nominal p value", "value": "nominally significantly higher two-hour pain-free rate than placebo"}, {"measurement": "absence of phonophobia at two hours vs placebo", "setting": "acute migraine; 50 mg, oral, nominal p value", "value": "Nominally significant differences from placebo"}, {"measurement": "absence of photophobia at two hours vs placebo", "setting": "acute migraine; 50 mg, oral, nominal p value", "value": "Nominally significant differences from placebo"}, {"measurement": "sustained pain freedom 2-24 hours vs placebo", "setting": "acute migraine; 50 mg, oral, nominal p value", "value": "Nominally significant differences from placebo"}, {"measurement": "sustained pain relief 2-24 hours vs placebo", "setting": "acute migraine; 50 mg, oral, nominal p value", "value": "Nominally significant differences from placebo"}, {"measurement": "sustained pain relief 2-48 hours vs placebo", "setting": "acute migraine; 50 mg, oral, nominal p value", "value": "Nominally significant differences from placebo"}, {"measurement": "total migraine freedom 2-24 hours vs placebo", "setting": "acute migraine; 50 mg, oral, nominal p value", "value": "Nominally significant differences from placebo"}, {"measurement": "total migraine freedom at two hours vs placebo", "setting": "acute migraine; 50 mg, oral, nominal p value", "value": "Nominally significant differences from placebo"}, {"measurement": "two-hour pain freedom vs placebo", "setting": "acute migraine; 100 mg, oral, two hours post-dose", "value": "statistically significant superiority to placebo"}, {"measurement": "secondary endpoints vs placebo", "setting": "acute migraine; 100 mg, oral, nominal p values", "value": "nominally significant improvements vs placebo on all secondary endpoints except absence of nausea at two hours"}, {"measurement": "treatment effects across most endpoints (all efficacy data)", "setting": "acute migraine; 25-mg, 50-mg, and 100-mg doses", "value": "consistent positive treatment effects"}, {"measurement": "response trend across ubrogepant doses, proportion of participants who achieved two-hour pain freedom", "setting": "acute migraine; oral tablet, single dose, 1, 10, 25, 50, 100 mg, p<0.001 for trend test", "value": "positive response trend"}, {"measurement": "dose dependence of AEs", "setting": "[1]; 1-100 mg single dose", "value": "No AEs showed clear dose dependence"}, {"measurement": "incidence of AEs within the 14 days post-dose", "setting": "[1]; compared with incidence within 48 hours", "value": "generally similar to the incidence within 48 hours"}, {"measurement": "other abnormal laboratory values", "setting": "[1]; single dose", "value": "no other abnormal laboratory values of clinical relevance"}, {"measurement": "post-treatment elevations of ALT >3×ULN", "setting": "[1]; single dose", "value": "no observed post-treatment elevations"}, {"measurement": "liver enzyme increases", "setting": "[1]; single-dose study", "value": "no liver enzyme increases clearly attributable to administration of ubrogepant"}, {"measurement": "tolerability on administration", "setting": "[1]; summary statement", "value": "well-tolerated"}]}]}
